From patent publication US10329289B2, “6,7-dihydro-5H-pyrrolo[3,4-B]pyridin-5-one allosteric modulators of the M4 muscarinic acetylcholine receptor” (Merck Sharp & Dohme Corp., priority 2015, dated 2019)

biological target: T1, human M4 muscarinic acetylcholine receptor (Homo sapiens, UniProt P08173); assay: human FLIPR-based M4 PAM assay (Ca2+ mobilization, CHO-K1 cells with human M4 receptor and Gαqi5); type: cell-based; conditions: acetylcholine at 20% of maximum response, read-out: M4 PAM IP
T1 construct: expressed in transfected cells; host or cells: CHO-K1
T1 sequence (P08173 1-479): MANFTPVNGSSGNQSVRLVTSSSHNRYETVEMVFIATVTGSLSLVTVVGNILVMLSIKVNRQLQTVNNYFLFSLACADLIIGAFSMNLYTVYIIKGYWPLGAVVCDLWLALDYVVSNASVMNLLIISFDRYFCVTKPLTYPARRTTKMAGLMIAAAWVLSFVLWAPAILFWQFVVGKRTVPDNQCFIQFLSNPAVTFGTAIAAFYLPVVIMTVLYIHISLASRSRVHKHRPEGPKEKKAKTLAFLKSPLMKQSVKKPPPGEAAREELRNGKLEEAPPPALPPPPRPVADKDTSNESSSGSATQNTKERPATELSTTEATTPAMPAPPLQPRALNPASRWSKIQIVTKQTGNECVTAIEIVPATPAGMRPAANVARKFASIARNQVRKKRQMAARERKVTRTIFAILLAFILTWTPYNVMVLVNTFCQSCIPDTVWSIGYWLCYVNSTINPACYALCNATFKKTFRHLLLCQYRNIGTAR
Procedure: In a typical experiment the M4 muscarinic acetylcholine receptor modulating activity of the compounds of the present invention was determined in accordance with the following experimental method. CHO-K1 cells stably transfected with human M4 receptor and chimeric G-protein Gαqi5 (Coward P, et al., Analytical Biochemistry, 270:242-248 (1999)) are thawed from liquid N2 storage, resuspended in growth medium, plated in black, clear bottom 384 well plates, and incubated 16-20 hours at 37° C., 5% CO2. On the day of assay, growth medium is removed, the cells are washed 2 times with wash buffer, and cells are incubated in dye loading buffer at 37° C., 5% CO2 for ˜1 hour. […] Next, 10 uL of acetylcholine is added (final concentration calculated so as to achieve 20% of the maximum acetycholine response), and the fluorescence reading is continued for 3.5 min. In some cases, a third addition of acetylcholine (final concentration calculated to achieve 70% of the maximal acetylcholine response) is performed. The resulting dose response curves are fit to a 4 parameter logistic equation and the final result is determined as the inflection point (IP) of the curve
CHO-K1 cells stably transfected with human M4 receptor and chimeric G-protein Gαqi5 are thawed from liquid N2 storage, resuspended in growth medium, plated in black, clear bottom 384 well plates, and incubated 16-20 hours at 37° C., 5% CO2.
On the day of assay, growth medium is removed, the cells are washed 2 times with wash buffer, and cells are incubated in dye loading buffer at 37° C., 5% CO2 for ˜1 h. […] Next, 10 uL of acetylcholine is added (final concentration calculated so as to achieve 20% of the maximum acetycholine response), and the fluorescence reading is continued for 3.5 min. In some cases, a third addition of acetylcholine (final concentration calculated to achieve 70% of the maximal acetylcholine response) is performed.

For `Cc1cc2c(nc1N1CCC(Oc3ccc4c(cnn4C)c3)CC1)[C@@H](CO)N(C)C2=O` [Example 359, (S)-7-(hydroxymethyl)-3,6-dimethyl-2-(4-((1-methyl-1H-indazol-5-yl)oxy)piperidin-1-yl)-6,7-dihydro-5H-pyrrolo[3,4-b]pyridin-5-one], which EC50 is on record?
The EC50 was 37 nM.

`Cc1cc2c(nc1N1CCC(Oc3cccc(C=O)c3)CC1)CNC2=O` [Example 308, 3-((1-(3-Methyl-5-oxo-6,7-dihydro-5H-pyrrolo[3,4-b]pyridin-2-yl)piperidin-4-yl)oxy)benzaldehyde] was tested. Which EC50 did it give?
The EC50 was 176 nM.

`Cc1cc2c(nc1N1CCC(Oc3ccc4ncnn4c3)CC1)CNC2=O` [Example 197A, 2-(4-([1,2,4]triazolo[1,5-a]pyridin-6-yloxy)piperidin-1-yl)-3-methyl-6,7-dihydro-5H-pyrrolo[3,4-b]pyridin-5-one] was tested. Which EC50 did it give?
The EC50 was 285 nM.

For `Cc1cc2c(nc1N1CCC(Oc3ccc4c(c3)COC4(C)C)CC1)CNC2=O` [Example 126, 2-(4-((1,1-dimethyl-1,3-dihydro-2-benzofuran-5-yl)oxy)piperidin-1-yl)-3-methyl-6,7-dihydro-5H-pyrrolo[3,4-b]pyridin-5-one], which EC50 is on record?
Its EC50 is 216 nM.

How did the EC50 turn out when `Cc1c(N2CCC(Oc3ccc4c(c3)OCC4)CC2)nc2c(c1C)C(=O)NC2` [Example 333, 2-(4-((2,3-dihydrobenzofuran-6-yl)oxy)piperidin-1-yl)-3,4-dimethyl-6,7-dihydro-5H-pyrrolo[3,4-b]pyridin-5-one] was run?
Its EC50 is 37 nM.

For `Cc1cc2c(nc1N1CCC(Oc3cnn(C)c3)CC1)[C@@H](CO)N(C)C2=O` [Example 357, (S)-7-(hydroxymethyl)-3,6-dimethyl-2-(4-((1-methyl-1H-pyrazol-4-yl)oxy)piperidin-1-yl)-6,7-dihydro-5H-pyrrolo[3,4-b]pyridin-5-one], which EC50 is on record?
The EC50 was 87 nM.

With `Cc1c(N2CCC(OCC3(C)CC3)CC2)nc2c(c1C)C(=O)N(CCO)C2` [Example 267, 6-(2-hydroxyethyl)-3,4-dimethyl-2-(4-((1-methylcyclopropyl)methoxy)piperidin-1-yl)-6,7-dihydro-5H-pyrrolo[3,4-b]pyridin-5-one] as the compound, how does the EC50 read?
The EC50 was 34 nM.

For `COC(=O)c1cc2c(nc1N1CCC(Oc3ccc(OC)nc3)CC1)CNC2=O` [Example 160, methyl 2-(4-((6-methoxypyridin-3-yl)oxy)piperidin-1-yl)-5-oxo-6,7-dihydro-5H-pyrrolo[3,4-b]pyridine-3-carboxylate], which EC50 is on record?
Its EC50 is 231 nM.

`Cc1cc2c(nc1N1[C@@H]3CC[C@H]1C[C@H](Oc1ccc4c(cnn4C)c1)C3)CNC2=O` [Example 98, 3-methyl-2-(exo-3-((1-methyl-1H-indazol-5-yl)oxy)-8-azabicyclo[3.2.1]octan-8-yl)-6,7-dihydro-5H-pyrrolo[3,4-b]pyridin-5-one] was tested. Which EC50 did it give?
The EC50 was 522 nM.

How did the EC50 turn out when `Cc1cc2c(nc1N1CC[C@@H](Oc3ccc4c(c3)COCC4)[C@@H](F)C1)CNC2=O` [Example 178B, 2-((3S,4R)-3-fluoro-4-(isochroman-7-yloxy)piperidin-1-yl)-3-methyl-6,7-dihydro-5H-pyrrolo[3,4-b]pyridin-5-one] was run?
The EC50 was 18 nM.

With `Cc1c(N2CCC(Oc3ccc4c(c3)C[C@@H](O)C4)CC2)nc2c(c1C)C(=O)N(CCO)C2` [Example 264E, (S)-2-(4-((2-hydroxy-2,3-dihydro-1H-inden-5-yl)oxy)piperidin-1-yl)-6-(2-hydroxyethyl)-3,4-dimethyl-6,7-dihydro-5H-pyrrolo[3,4-b]pyridin-5-one] as the compound, how does the EC50 read?
Its EC50 is 125 nM.

Which EC50 does the source give for `Cc1cc2c(nc1N1CCC(Oc3ccc4c(c3)C[C@@H](O)C4)CC1)CNC2=O` (single isomer, unassigned) [Example 324A] here?
The EC50 was 22 nM.

`Cc1cc2c(nc1N1CCC(Oc3ccc4c(c3)C(=O)N(C)C4)CC1)CNC2=O` [Example 67, 3-methyl-2-(4-((2-methyl-3-oxoisoindolin-5-yl)oxy)piperidin-1-yl)-6,7-dihydro-5H-pyrrolo[3,4-b]pyridin-5-one] was tested. Which EC50 did it give?
Its EC50 is 136 nM.

With `Cc1cc2c(nc1N1CCC(Oc3ccc4nc(C)n(C)c4c3)CC1)CNC2=O` [Example 210, 2-(4-((1,2-dimethyl-1H-benzo[d]imidazol-6-yl)oxy)piperidin-1-yl)-3-methyl-6,7-dihydro-5H-pyrrolo[3,4-b]pyridin-5-one] as the compound, how does the EC50 read?
The EC50 was 2580 nM.

Which EC50 does the source give for `Cc1cc2c(nc1N1CCC(Oc3cnc4c(c3)COC4)CC1)[C@@H](CO)N(C)C2=O` [Example 278A, (S)-2-(4-((5,7-dihydrofuro[3,4-b]pyridin-3-yl)oxy)piperidin-1-yl)-7-(hydroxymethyl)-3,6-dimethyl-6,7-dihydro-5H-pyrrolo[3,4-b]pyridin-5-one] here?
Its EC50 is 76 nM.

`COc1ccc(OC2CCN(c3nc4c(cc3C)C(=O)N(C)[C@H]4CO)CC2)cn1` (single isomer, unassigned) [Example 273A] was tested. Which EC50 did it give?
Its EC50 is 4500 nM.

Which EC50 does the source give for `COC1(COC2CCN(c3nc4c(cc3C)C(=O)NC4)CC2)CC1` [Example 193, 2-(4-((1-methoxycyclopropyl)methoxy)piperidin-1-yl)-3-methyl-6,7-dihydro-5H-pyrrolo[3,4-b]pyridin-5-one] here?
The EC50 was 1220 nM.

For `Cc1cc2c(nc1N1CCC(OCC3(CO)CC3)CC1)CNC2=O` [Example 312, 2-(4-((1-(hydroxymethyl)cyclopropyl)methoxy)piperidin-1-yl)-3-methyl-6,7-dihydro-5H-pyrrolo[3,4-b]pyridin-5-one], which EC50 is on record?
The EC50 was 651 nM.

`COc1ccc(OC2CCN(c3nc4c(cc3C)C(=O)N[C@@H]4CO)CC2)cn1` (single isomer, unassigned) [Example 271B] was tested. Which EC50 did it give?
Its EC50 is 38 nM.

Which EC50 does the source give for `Cc1cc2c(nc1N1CCC(Oc3ccc4c(c3)OCC4)CC1)[C@H](CO)N(C)C2=O` [Example 356, (R)-2-(4-((2,3-dihydrobenzofuran-6-yl)oxy)piperidin-1-yl)-7-(hydroxymethyl)-3,6-dimethyl-6,7-dihydro-5H-pyrrolo[3,4-b]pyridin-5-one] here?
Its EC50 is 788 nM.

With `Cc1cc2c(nc1N1CCC(Oc3ccc(O[C@@H](C)CO)nc3)CC1)CNC2=O` (single isomer, unassigned) [Example 141B] as the compound, how does the EC50 read?
The EC50 was 55 nM.

For `Cc1cc2c(nc1N1CCC(OC[C@]3(C)C[C@H]3F)CC1)CNC2=O` (single isomer, unassigned) [Example 160C], which EC50 is on record?
Its EC50 is 58 nM.

Which EC50 does the source give for `COc1ccc(OC2CCN(c3nc4c(cc3C)C(=O)N(C)C4(C)C)CC2)cn1` [Example 17, 2-(4-((6-methoxypyridin-3-yl)oxy)piperidin-1-yl)-3,6,7,7-tetramethyl-6,7-dihydro-5H-pyrrolo[3,4-b]pyridin-5-one] here?
Its EC50 is 1170 nM.

`Cc1cc2c(nc1N1CC[C@@H](Oc3ccccc3)[C@@H](F)C1)CN(CCO)C2=O` [Example 237, 2-((3S,4R)-3-fluoro-4-phenoxypiperidin-1-yl)-6-(2-hydroxyethyl)-3-methyl-6,7-dihydro-5H-pyrrolo[3,4-b]pyridin-5-one] was tested. Which EC50 did it give?
Its EC50 is 68 nM.

How did the EC50 turn out when `Cc1cc(OC2CCN(c3nc4c(cc3C)C(=O)NC4)CC2)ccc1F` [Example 108, 2-(4-(4-fluoro-3-methylphenoxy)piperidin-1-yl)-3-methyl-6,7-dihydro-5H-pyrrolo[3,4-b]pyridin-5-one] was run?
Its EC50 is 59 nM.

For `CCc1cc2c(nc1N1CCC(Oc3ccc4c(c3)COCC4)CC1)CNC2=O` [Example 200, 3-ethyl-2-(4-(isochroman-7-yloxy)piperidin-1-yl)-6,7-dihydro-5H-pyrrolo[3,4-b]pyridin-5-one], which EC50 is on record?
The EC50 was 96 nM.

With `CC(=O)N1CCc2ccc(OC3CCN(c4nc5c(cc4C)C(=O)NC5)CC3)cc2C1` [Example 295, 2-(4-((2-acetyl-1,2,3,4-tetrahydro-isoquinolin-7-yl)oxy)piperidin-1-yl)-3-methyl-6,7-dihydro-5H-pyrrolo[3,4-b] pyridin-5-one] as the compound, how does the EC50 read?
Its EC50 is 137 nM.

With `COc1ccc(OC2CCN(c3nc4c(c(CF)c3C)C(=O)NC4)CC2)cn1` [Example 305, 4-(fluoromethyl)-2-(4-((6-methoxypyridin-3-yl)oxy)piperidin-1-yl)-3-methyl-6,7-dihydro-5H-pyrrolo[3,4-b]pyridin-5-one] as the compound, how does the EC50 read?
The EC50 was 241 nM.

Which EC50 does the source give for `Cc1cc2c(nc1N1CCC(Oc3ccc4c(c3)C(=O)N(C)CC4)CC1)CNC2=O` [Example 138, 2-methyl-7-((1-(3-methyl-5-oxo-6,7-dihydro-5H-pyrrolo[3,4-b]pyridin-2-yl)piperidin-4-yl)oxy)-3,4-dihydroisoquinolin-1(2H)-one] here?
The EC50 was 390 nM.

`Cc1cc2c(nc1N1CCC(Oc3ccc4c(c3)OCCC4)CC1)CNC2=O` [Example 113, 2-(4-(chroman-7-yloxy)piperidin-1-yl)-3-methyl-6,7-dihydro-5H-pyrrolo[3,4-b]pyridin-5-one] was tested. Which EC50 did it give?
Its EC50 is 50 nM.
